Where a name gives a salt, the structure may show the parent alone. Read-outs that look alike come from different tables or passages of the source. Residues, ends and D or L forms follow the SMILES beside them. *: point of attachment. Cbz = O=C(OCc1ccccc1)*
Tested on: murine neural precursor cells (neurosphere cultures)
Assay: HTS of LOPAC library against secondary neurosphere cultures, MTT proliferation assay at 3 μM, day 7 (z score, P value)
Format: cell-based, mouse
[1] = LOPAC primary screen, neurosphere MTT proliferation, 3 μM, day 7
[2] = yes/no: significantly inhibited neurosphere proliferation (P<0.01) in the primary screen
[3] = LOPAC library screen, 3 μM, MTT, secondary neurosphere cultures, day 7
[4] = yes/no: significantly inhibited neurosphere proliferation in primary screen
[5] = yes = significantly inhibited neurosphere proliferation (P<0.01) in the primary screen
[6] = LOPAC library screen, 3 μM, MTT, neurosphere cultures
[7] = LOPAC screen, neurosphere MTT proliferation, 3 μM, day 7
[8] = yes/no: significantly inhibited neurosphere proliferation (P<0.01) in primary screen
[9] = LOPAC library screen at 3 μM, secondary neurosphere cultures, MTT
[10] = primary LOPAC screen, 3 μM, MTT, neurosphere proliferation
[11] = yes/no: significantly inhibited neurosphere proliferation in the primary screen

For `CCCC(C(=O)OCCN(CC)CC)(c1ccccc1)c1ccccc1.Cl` [SKF-525A hydrochloride], the “Z Score” value was −1.928, the Z score [1] was −1.928 and the Activity [2] was “no”.

In the case of `Cc1ccc(=O)n(-c2ccccc2)c1` [Pirfenidone], the “Z Score” value [3] is reported as −1.482, the Z score [1] is reported as −1.482 and the Activity [4] is reported as “no”.

In the case of `CC1(C)CCC(NC(=O)[C@@H](N)CCC(=O)O)CC1` [CR 2249], the “Z Score” value (168 h, 3 µM) is reported as −1.002, the Z score (168 h, 3 µM) is reported as −1.002 and the Activity [5] is reported as “no”.

With `CC(CCc1ccc(O)cc1)NCCc1ccc(O)c(O)c1` (stereo not drawn) [Dobutamine hydrochloride] the “Z Score” value [6] was 0.3185, the Z score [7] was 0.319 and the Activity [8] was “no”.

In the case of `Cc1ccc(O)c(N=Nc2ccccc2)n1` [SIB 1757], the “Z Score” value is reported as −1.752, the Z score [1] is reported as −1.752 and the Activity [4] is reported as “no”.

With `CC1=C(/C=C/C(C)=C/C=C/C(C)=C/C(=O)O)C(C)(C)CCC1` [Retinoic acid] the “Z Score” value [9] was −0.8657 and the Z score [1] was −0.866.

`CN(C(=O)CCCOc1ccc2[nH]c(=O)ccc2c1)C1CCCCC1` [Cilostamide] was tested, and the “Z Score” value [6] was 0.1756, the Z score [7] was 0.176 and the Activity [8] was “no”.

For `Cc1cc(N)c2ccccc2[n+]1CCCCCCCCCC[n+]1c(C)cc(N)c2ccccc21` [Dequalinium (29), Dequalinium, reference compound], the “Z Score” value [3] was −9.54, the Z score [1] was −9.540 and the Activity [2] was “yes”.

`CSC(=N)N.CSC(=N)N.O=S(=O)(O)O` [S-Methylisothiourea hemisulfate] was tested, and the Activity was “no”, the “Z Score” value was −0.2111 and the Z score was −0.211.

In the case of `C[N+](C)(C)CCOP(=O)([O-])OP(=O)([O-])OC[C@H]1O[C@@H](n2ccc(N)nc2=O)[C@H](O)[C@@H]1O.[Na+]` [Citicoline sodium], the “Z Score” value [9] is reported as −0.1331, the Z score [7] is reported as −0.133 and the Activity [8] is reported as “no”.

`CC(=O)[C@H]1CC[C@H]2[C@@H]3CCC4=CC(=O)CC[C@]4(C)[C@H]3CC[C@]12C` [Progesterone] was tested, and the “Z Score” value [6] was 0.4252, the Z score [1] was 0.425 and the Activity [4] was “no”.

For `COc1cc(C=C(C#N)C#N)cc(O)c1O` [Tyrphostin AG 34], the “Z Score” value [3] was −2.319, the Z score [1] was −2.319 and the Activity [4] was “no”.

With `C[N+]1(C)CCC(OC(=O)C(c2ccccc2)c2ccccc2)CC1.[I-]` [4-DAMP methiodide] the “Z Score” value [6] was 0.3311, the Z score [7] was 0.331 and the Activity [8] was “no”.

With `CC(C)[C@H](NC(=O)OCc1ccccc1)C(=O)N[C@H](C=O)Cc1ccccc1` [MDL 28170] (Cbz-Val-Phe-aldehyde) the “Z Score” value (168 h, 3 µM) was −1.139 and the Z score (168 h, 3 µM) was −1.139.

With `CNCC[C@@H](Oc1ccccc1C)c1ccccc1` [Tomoxetine] the Activity was “no”, the “Z Score” value [6] was 0.1672 and the Z score [10] was 0.167.

`CNCCC=C1c2ccccc2CCc2ccccc21` [Nortriptyline hydrochloride] was tested, and the “Z Score” value [9] was −1.095, the Z score [1] was −1.095 and the Activity [5] was “no”.

With `CC(C)Cc1ccc([C@H](C)C(=O)O)cc1` [S(+)-Ibuprofen] the “Z Score” value [9] was −0.7335, the Z score [1] was −0.733 and the Activity [8] was “no”.

In the case of `CN1CCN(CCCN2c3ccccc3Sc3ccc(C(F)(F)F)cc32)CC1` [Trifluoperazine dihydrochloride], the “Z Score” value (168 h, 3 µM) is reported as −9.305, the Z score (168 h, 3 µM) is reported as −9.305 and the Activity [2] is reported as “yes”.

With `N[C@@H](C(=O)N[C@@H]1C(=O)N2C(C(=O)O)=C(Cl)CS[C@H]12)c1ccccc1` [Cefaclor] the “Z Score” value [3] was −3.009, the Z score [1] was −3.009 and the Activity [2] was “yes”.

With `C[C@]12CCC(=O)C=C1CC[C@@H]1[C@@H]2CC[C@]2(C)C(=O)CC[C@@H]12` [4-Androstene-3,17-dione] the “Z Score” value was −0.6917, the Z score [10] was −0.692 and the Activity [11] was “no”.

`COc1cc(CC(C)N)c(OC)cc1I.Cl` (stereo not drawn) [(B1)-DOI hydrochloride] was tested, and the “Z Score” value was −1.345.

With `CC(C)(C)c1onc(OCP(=O)(O)O)c1CC(N)C(=O)O` (stereo not drawn) [ATPO] the “Z Score” value was −1.68, the Z score [10] was −1.680 and the Activity [11] was “no”.

For `N.N.N.N.N.N.N.N.N.N.N.N.N.N.[Cl-].[Cl-].[Cl-].[Cl-].[Cl-].[Cl-].[O-2].[O-2].[Ru+3].[Ru+3].[Ru+4]` [Ruthenium red], the “Z Score” value was −0.07388, the Z score [1] was −0.074 and the Activity [4] was “no”.

`O=C(O)[C@H]1CCCN[C@H]1C(=O)O` was tested, and the “Z Score” value was 0.1553.

In the case of `Br.COc1ccc(-c2ccc(=N)n(CCCC(=O)O)n2)cc1` [SR-95531], the Activity is reported as “no”, the “Z Score” value is reported as −0.9574 and the Z score is reported as −0.957.

In the case of `OCCN1CCN(CCCN2c3ccccc3Sc3ccc(C(F)(F)F)cc32)CC1` [Fluphenazine dihydrochloride], the “Z Score” value (168 h, 3 µM) is reported as −10.2, the Z score (168 h, 3 µM) is reported as −10.197 and the Activity [2] is reported as “yes”.

`CC[C@@H]1Cc2cc(O)ccc2C2=C1c1ccc(O)cc1C[C@H]2CC` was tested, and the “Z Score” value was −1.053, the Z score [1] was −1.053 and the Activity [2] was “no”.

With `O=C(O)c1cc[c]([Hg][Cl])cc1` [4-Chloromercuribenzoic acid] the “Z Score” value was −0.03193, the Z score [7] was −0.032 and the Activity [8] was “no”.

`O=c1c2ccccc2nc2n1CCc1c-2[nH]c2ccccc12` [Rutaecarpine] was tested, and the “Z Score” value (168 h, 3 µM) was 0.6857 and the Z score (168 h, 3 µM) was 0.686.

In the case of `NC(N)=Nc1ccc2[nH]c3c(c2c1)C[C@@]1(O)[C@H]2Cc4ccc(O)c5c4[C@@]1(CCN2CC1CC1)[C@H]3O5.O=C(O)C(F)(F)F.O=C(O)C(F)(F)F`, the “Z Score” value is reported as −0.2037, the Z score [1] is reported as −0.204 and the Activity [8] is reported as “no”.

In the case of `C[C@@H]1O[C@H](C[N+](C)(C)C)C[C@H]1O.[Cl-]` (racemic) [(±)-Muscarine chloride], the Z score [1] is reported as −1.905 and the Activity [5] is reported as “no”.

In the case of `O=[N+]([O-])c1cc2nc(O)c(O)nc2cc1[N+](=O)[O-]` [DNQX], the “Z Score” value is reported as 0.9307, the Z score [7] is reported as 0.931 and the Activity [8] is reported as “no”.

`Nc1nc(O)c2ncn(COC(CO)CO)c2n1` [Ganciclovir] was tested, and the “Z Score” value [3] was −8.939, the Z score [1] was −8.939 and the Activity [2] was “yes”.

R-(−)-Fluoxetine hydrochloride was tested, and the Activity was “no” and the “Z Score” value [9] was −0.1281.

`Oc1ccc2c3c1O[C@H]1c4[nH]c5c(c4C[C@@]4(O)[C@@H](C2)N(CC2CC2)CC[C@]314)C[C@@]1(O)[C@H]2Cc3ccc(O)c4c3[C@@]1(CCN2CC1CC1)[C@H]5O4` [nor-Binaltorphimine dihydrochloride] was tested, and the “Z Score” value was 0.3881, the Z score [1] was 0.388 and the Activity [5] was “no”.

For `CC(N)(C(=O)O)c1ccc(C(=O)O)cc1` (stereo not drawn) [(B1)-alpha-Methyl-4-carboxyphenylglycine], the “Z Score” value was 0.727.

In the case of `NS(=O)(=O)c1cc2c(cc1Cl)N=CNS2(=O)=O` [Chlorothiazide], the “Z Score” value [3] is reported as −3.165, the Z score [1] is reported as −3.165 and the Activity [5] is reported as “yes”.

For `NC(C(=O)O)C(O)C(=O)O` (racemic) [DL-threo-beta-hydroxyaspartic acid], the “Z Score” value was −0.5215, the Z score [1] was −0.522 and the Activity [8] was “no”.

`CNC[C@H](O)c1ccc(O)c(O)c1.O=C(O)C(O)C(O)C(=O)O` [(−)-Epinephrine bitartrate] was tested, and the “Z Score” value [9] was −0.5304, the Z score [1] was −0.530 and the Activity [8] was “no”.

For `CC[C@@H](CO)NC(=O)[C@@H]1C=C2c3cccc4[nH]cc(c34)C[C@H]2N(C)C1` [Methylergonovine maleate], the “Z Score” value was −0.7846, the Z score [1] was −0.785 and the Activity [5] was “no”.

In the case of `Fc1ccc(C(OCCCc2c[nH]cn2)c2ccc(F)cc2)cc1` [3-(1H-Imidazol-4-yl)propyl di(p-fluorophenyl)methyl ether], the Z score [1] is reported as −0.015 and the Activity [8] is reported as “no”.

In the case of `CC(C)C[C@H](N)CSSC[C@@H](N)CC(C)C.Cl.Cl` [L-Leucinethiol, oxidized dihydrochloride], the “Z Score” value is reported as −0.584, the Z score [1] is reported as −0.584 and the Activity [8] is reported as “no”.

`Br.CCCN(CCC)[C@@H]1CCc2cccc(O)c2C1` [R-(+)-8-Hydroxy-DPAT hydrobromide] was tested, and the “Z Score” value [9] was −0.6916, the Z score [1] was −0.692 and the Activity [2] was “no”.

For `Nc1ccc(N2C(=O)c3ccccc3C2=O)c(Cl)c1` [N-(4-Amino-2-chlorophenyl)phthalimide], the “Z Score” value [9] was −0.6021, the Z score [10] was −0.602 and the Activity [11] was “no”.

`CC(=O)OCC(=O)[C@@]1(O)CC[C@H]2[C@@H]3CCC4=CC(=O)CC[C@]4(C)[C@H]3C(=O)C[C@@]21C` [Cortisone 21-acetate] was tested, and the “Z Score” value [3] was −2.218, the Z score [7] was −2.218 and the Activity [8] was “no”.

For `COc1ccc2[nH]cc(CCN)c2c1.Cl` [O-Methylserotonin hydrochloride], the “Z Score” value was −0.172, the Z score [1] was −0.172 and the Activity [5] was “no”.

`CCCN(CCC)C1Cc2cc(OC)c(OC)cc2C1.O=C(O)/C=C\C(=O)O` [U-99194A maleate] was tested, and the “Z Score” value was 1.255.

`NC(=O)C1=CN([C@@H]2O[C@H](COP(=O)([O-])OP(=O)([O-])OC[C@H]3O[C@@H](n4cnc5c(N)ncnc54)[C@H](OP(=O)([O-])[O-])[C@@H]3O)[C@@H](O)[C@H]2O)C=CC1.[Na+].[Na+].[Na+].[Na+]` [NADPH tetrasodium] was tested, and the “Z Score” value [6] was 0.3021, the Z score [1] was 0.302 and the Activity [5] was “no”.

`CC(Cc1ccc(O)cc1)NCC(O)c1cc(O)cc(O)c1` (stereo not drawn) [Fenoterol hydrobromide] was tested, and the “Z Score” value was −1.841, the Z score [1] was −1.841 and the Activity [8] was “no”.

`CC(C)=CCCC(C)=CCCC(C)=CCSc1ccccc1C(=O)O` [Farnesylthiosalicylic acid] was tested, and the “Z Score” value [6] was 0.9061, the Z score [1] was 0.906 and the Activity [8] was “no”.

`COc1cccc2c1[C@@H]1CN(CCCCn3c(=O)[nH]c4c(sc5ncc(-c6ccccc6)nc54)c3=O)C[C@@H]1CO2` [Fiduxosin hydrochloride] was tested, and the “Z Score” value [6] was 0.2005, the Z score [1] was 0.200 and the Activity [8] was “no”.

`Br.Oc1cc2c(c(Cl)c1O)CCNCC2c1ccccc1` (racemic) [(±)-6-Chloro-PB hydrobromide] was tested, and the Z score [1] was −2.267 and the Activity [4] was “no”.

Source: patent publication US8058243B2, “Method for treating a brain cancer with ifenprodil” (HSC Research and Development Limited Partnership, priority 2006, dated 2011)
